Experiments:
Experiment in all cases: Effect on weeds by the post-emergence technique
Assay type in all cases: in vivo
Conditions in all cases: rated visually after approx. 3-4 weeks
[1] = tested on: Sinapis alba (white mustard)
Description: (§1) The damage caused to weed plants or the toleration by crop plants was rated by means of a code in which the activity is expressed by valuation numbers from 0 to 5. These have the following meanings:
(§2) Seeds or pieces of rhizome of monocotyledonous and dicotyledonous weeds were laid out in sandy loam soil in plastic pots (.phi.=9 l cm), covered with soil and cultivated in a greenhouse under good conditions for growth. The test plants were treated in the three leaf stage three weeks after sowing.
(§3) The compounds according to the invention, formulated as wettable powders, as emulsion concentrates or as aqueous solutions, were sprayed onto the green parts of the plants at various dosages and at a water application rate equivalent to 600 l/hectare, and the effect of the preparations was rated visually in comparison with untreated controls after the test plants had stood for approx. 3-4 weeks in a greenhouse under optimum conditions for growth (temperature 23 plus/minus 1° C.; relative humidity 60-80%). The agents according to the invention display a good herbicidal activity in the post-emergence technique against a broad spectrum of grass-like weeds and weeds of economic importance.

[2] = tested on: Chrysanthemum segetum corn marigold
Description: as §1, §2, §3

[3] = tested on: Echinochloa crusgalli barnyardgrass
Description: as §1, §2, §3

[4] = tested on: Avena fatua (wild oats)
Description: as §1, §2, §3

[5] = tested on: Stellaria media (starwort)
Description: as §1, §2, §3

[6] = tested on: Setaria lutescens foxtail
Description: as §1, §2, §3

Compound	Herbicidal effect SIA ([1]; 0.6 kg of a.i./hectare)	Herbicidal effect SIA ([1]; 2.4 kg of a.i./hectare)	Herbicidal effect CRS ([2]; 0.6 kg of a.i./hectare)	Herbicidal effect CRS ([2]; 2.4 kg of a.i./hectare)	Herbicidal effect ECG ([3]; 0.6 kg of a.i./hectare)	Herbicidal effect ECG ([3]; 2.4 kg of a.i./hectare)	Herbicidal effect AVF ([4]; 0.6 kg of a.i./hectare)	Herbicidal effect AVF ([4]; 2.4 kg of a.i./hectare)	Herbicidal effect STM ([5]; 0.6 kg of a.i./hectare)	Herbicidal effect STM ([5]; 2.4 kg of a.i./hectare)	Herbicidal effect SAL ([6]; 0.6 kg of a.i./hectare)	Herbicidal effect SAL ([6]; 2.4 kg of a.i./hectare)
CP(=O)(O)CCC(NC(=O)[C@@H](N)Cc1ccccc1)C(=O)O (mixture of isomers) [Example 2, N-L-phenylalanyl-DL-phosphinothricin]	5 (5=80-100% effect or damage)	5 (5=80-100% effect or damage)	5 (5=80-100% effect or damage)	5 (5=80-100% effect or damage)	5 (5=80-100% effect or damage)	5 (5=80-100% effect or damage)	5 (5=80-100% effect or damage)	5 (5=80-100% effect or damage)	4 (4=60-80% effect or damage)	5 (5=80-100% effect or damage)	5 (5=80-100% effect or damage)	5 (5=80-100% effect or damage)
CP(=O)(O)CCC(NC(=O)C(N)c1ccccc1)C(=O)O (centres unmarked) [Example 34]	5 (5=80-100% effect or damage)	5 (5=80-100% effect or damage)	5 (5=80-100% effect or damage)	5 (5=80-100% effect or damage)	5 (5=80-100% effect or damage)	5 (5=80-100% effect or damage)	3 (3=40-60% effect or damage)	4 (4=60-80% effect or damage)	4 (4=60-80% effect or damage)	5 (5=80-100% effect or damage)	4 (4=60-80% effect or damage)	5 (5=80-100% effect or damage)
CP(=O)(O)CCC(NC(=O)[C@@H](N)CCCCN)C(=O)O (some centres unmarked) [Example 72]	–	5 (5=80-100% effect or damage)	–	5 (5=80-100% effect or damage)	–	5 (5=80-100% effect or damage)	–	–	–	5 (5=80-100% effect or damage)	–	–
CC(C)C(N)C(=O)NC(CCP(C)(=O)O)C(=O)O (racemic) [Example 1, N-Dl-valyl-DL-phosphinothricin]	5 (5=80-100% effect or damage)	5 (5=80-100% effect or damage)	5 (5=80-100% effect or damage)	5 (5=80-100% effect or damage)	5 (5=80-100% effect or damage)	5 (5=80-100% effect or damage)	4 (4=60-80% effect or damage)	5 (5=80-100% effect or damage)	4 (4=60-80% effect or damage)	5 (5=80-100% effect or damage)	4 (4=60-80% effect or damage)	5 (5=80-100% effect or damage)
CC(C)C[C@H](N)C(=O)NC(CCP(C)(=O)O)C(=O)O (some centres unmarked) [Example 24]	–	5 (5=80-100% effect or damage)	–	5 (5=80-100% effect or damage)	–	5 (5=80-100% effect or damage)	–	–	–	5 (5=80-100% effect or damage)	–	–

Reference: patent publication US4734120A, “Dipeptides containing C-terminal phosphinothricin, a process for their preparation and their use for controlling undesirable plant growth” (Hoechst Aktiengesellschaft, priority 1985, dated 1988)
